Three molecules from patent JP2016013988A, “エステル化合物” (Mitsubishi Gas Chemical Co Inc, priority 2014, dated 2016) can be followed below.

A short description of the data set: APHA (colour number) of the purified diester. The settings on record: after KOH/water washing, removal of acid under reduced pressure and activated carbon treatment. The data set is classed as physicochemical.
Consider `CCCCC(CC)(COCC(C)(C)COC(=O)C(C)(C)C)COC(=O)C(C)(C)C` (stereo not drawn) [実施例1, ジピバリン酸 4−オキサ−2−ブチル−2−エチル−6,6−ジメチルヘプタン−1,7−ジイル], for which the APHA was 28. Turning to `CCCC(C)(COCC(C)(C)COC(=O)C(C)(C)C)COC(=O)C(C)(C)C` (stereo not drawn) [実施例2, ジピバリン酸 4−オキサ−2−プロピル−2,6,6−トリメチルヘプタン−1,7−ジイル], the APHA was determined as 27. On to `CCCCC(CC)C(=O)OCC(C)(C)COCC(C)(CCC)COC(=O)C(CC)CCCC` (stereo not drawn) [実施例4, ビス(2−エチルへキサン酸) 4−オキサ−2−プロピル−2,6,6−トリメチルヘプタン−1,7−ジイル], for which the APHA was found to be 22.
